According to patent US9464291B2, “Methods and compositions for the treatment of cancer” (University of South Alabama, priority 2012, dated 2016):
Entries after “also recorded” stand apart in the source; their conditions may differ. Starred links: 1 amine or outer side, 2 acyl side, 3 side chain; linkers in the order of their positions; H or OH if unused. Positions of bridges follow the written chain, without caps; N, C: chain ends. Non-standard residues stand in square brackets, D forms with d. Residues, ends and D or L forms follow the SMILES beside them. Chains are numbered I, II in the order given. Actinocin(9to1) = Cc1c2oc3c(C)ccc(C(=O)[*:1])c3nc-2c(C(=O)[*:2])c(N)c1=O; NMeV = CN[C@H](C(=O)O)C(C)C; Nle = CCCC[C@H](N)C(=O)O; Sar = CNCC(=O)O

How the values were obtained:
ERCC1 = conditions: human ovarian cancer cells after cisplatin exposure; cited from earlier work
OPN promoter = OPN promoter luciferase reporter assay in melanoma cell lines; assay type: cell-based, human; conditions: MDA-MB-435, MCC012A, MCC012F
Procedure: Empty pGL3 vector was used as control. Hedgehog ligands were added to the well 6 h prior to harvesting the cells (approximately 33 hr of initiation of transfection) for assay. Readings were normalized to total protein content. Each parameter was studied in triplicate and the experiment repeated at least 3 times. The data are represented as percent luciferase activity, which was derived as a percent of the relative light units in treated groups compared with the untreated groups.

Gli1 = experiment: GLI1 silencing by shRNA constructs in MDA-MB-435 cells, Western blot; assay type: cell-based, human
Procedure: To evaluate the functional effects of active Hedgehog signaling stable cell lines that were knocked down for GLI1 expression by RNA interference were generated. The efficacy of three shRNA constructs for silencing GLI1 expression was assessed.
Generation of Stable Transfectants—Endogenous GLI1 from MDA-MB-435 cells was silenced using shRNAs (short hairpin RNA) cloned into pSuperior.neo+gfp plasmid (OligoEngine, Seattle, Wash.) (TABLE 1). Introduction of double-stranded RNA has proven to be a powerful tool to suppress gene expression through a process known as RNA interference (P. A. Sharp, Genes Dev. 13, 139 (1999)). However, in some mammalian cells this can provoke a strong cytotoxic response (T. Hunter, T. Hunt, R. J. Jackson, H. D. Robertson, J. Biol. Chem. 250, 409 (1975)). This non-specific effect can be circumvented by use of synthetic short [21- to 22-nucleotide (nt)] interfering RNAs (siRNAs), which can mediate strong and specific suppression of gene expression (S. M. Elbashir et al., Nature 411, 494 (2001)). shRNAs included a target sequence sense strand, a short hairpin, and a target sequence antisense strand.
Western Blotting Analysis—Whole cell lysates were collected in Nonidet P-40 buffer (150 mM NaCl, 50 mM Tris, 1% Nonidet P-40). […] Secreted OPN was assessed by loading an equal quantity of protein from the serum-free conditioned medium. […]

RAW264.7 cells [1] = experiment: Osteoclast resorption activity, OAAS plates; assay type: cell-based, murine; conditions: DM supplemented with SHH (100 nM) or OPN (100 ng/ml)
Procedure: Osteoclast differentiation and activity assays—Tartarate-resistant acid phosphatase (TRAP) assay was conducted for RAW 264.7 following the manufacturer's protocol (Sigma, St. Louis, Mo.). This assay was indicative of the extent of differentiation. OAAS plates (Osteogenic Core Technologies, Choongnam, Republic of Korea) were utilized to measure osteoclastic activity. RAW 264.7 cells (25×103) were inoculated in 48-well plates. Cells were treated with serum-free conditioned media from breast cancer cells or 100 nM SHH or 100 ng/ml OPN on the following day. Media was changed every two days and the experiments were terminated either on day 6 (day 7 for knockdown experiments, with transfections being done on the sixth day). At the completion, cells were detached with 5% sodium hypochlorite and the wells were observed under a Nikon Eclipse TS 100 microscope at 10× magnification. […] The percentage of area resorbed was calculated using the NIS-Elements BR. 3.1 software.

RAW264.7 cells [2] = experiment: Osteoclast differentiation, TRAP assay, RAW264.7; assay type: cell-based, murine; conditions: DM supplemented with SHH (100 nM) or OPN (100 ng/ml) vs DM alone
Procedure: Cell lines—Human metastatic breast cancer cells, MDA-MB-231, were cultured in Dulbecco's Modified Eagle's Medium (DMEM/F12; Invitrogen, Carlsbad, Calif.), supplemented with 2 mM L-glutamine, 1 mM sodium pyruvate, 0.02 mM non-essential amino acids, 5% fetal bovine serum, FBS (Atlanta Biologicals, Norcross, Ga.), without antibiotics or antimycotics (cDME/F12). SUM1315 and SUM159 cells (DiMeo, T. A., et al. (2009) Cancer Res 69, 5364-5373) (Asterand, Detroit, Mich.) were cultured in DMEM/F12 supplemented with […] insulin, 5% FBS (Atlanta Biologicals) and either 10 ng/ml EGF or 1 ng/ml hydrocortisone, without antibiotics or antimycotics. The SUM1315 cells are derived from a metastasis in a patient with infiltrating ductal carcinoma; SUM159 cells were derived from a primary breast tumor with metaplastic ccarcinoma. RAW264.7 (ATCC, TIB 71) cells, a murine pre-osteoclastic line capable of differentiation and mineralization in culture (in presence of RANKL and MCSF), were grown in DMEM with L-glutamine (ATCC, 30-2002) supplemented with 10% FBS. A 2× differentiation medium (DM) was formulated for the RAW 264.7 cells comprising RAW264.7 growth medium supplemented with 20% FBS, RANKL (100 ng/ml) and M-CSF (40 ng/ml) (Matsubara, T., et al. J Bone Miner Res 25, 1068-1076). Conditioned media was harvested from breast cancer cells and mixed in a 1:1 ratio with double strength differentiation medium to assess the effect on osteoclast differentiation. 1×DM was used as control or wherever SHH (R & D Systems, Minneapolis, Minn.) or OPN (R & D Systems) was used alone. The medium on the RAW264.7 cells was replenished every 48 hours. In order to assess the effect of secreted Hh ligands, the neutralizing 5E1 antibody was used (Developmental Studies Hybridoma Bank, at the University of Iowa, Iowa). The amount of 5E1 antibody used for the studies was determined following titration of the antibody with respect to its effects on osteoclast differentiation. Medium was supplemented with 5E1 (2.5 μg/ml) and was changed on alternate days until the end of the experiment. The effect of OPN on osteoclast activity was assessed by transfecting an OPN shRNA-expressing construct on day 6 post-induction of differentiation. Fresh DM was added the following day and cells were allowed to grow for another 12 hours before termination of experiment. GLI1 expression was silenced in the SUM1315 cells using shRNA targeting GLI1 into pSuperior. gfp+neo (Oligoengine, Wash., USA). […]
Osteoclast differentiation and activity assays—Tartarate-resistant acid phosphatase (TRAP) assay was conducted for RAW 264.7 following the manufacturer's protocol (Sigma, St. Louis, Mo.). […] The percentage of area resorbed was calculated using the NIS-Elements BR. […]

Molecule	effect on ERCC1 up-regulation (ERCC1)	further results
CC[C@H](C)[C@@H]1NC(=O)CNC(=O)[C@@H]2Cc3c([nH]c4cc(O)ccc34)[S+]([O-])C[C@@H](NC(=O)CNC1=O)C(=O)N[C@@H](CC(N)=O)C(=O)N1C[C@H](O)C[C@H]1C(=O)N[C@@H]([C@@H](C)[C@@H](O)CO)C(=O)N2 (stereo in doubt) [α-amanitin]	blunted ERCC1 up-regulation	–
CCCC[C@@H](C=O)NC(=O)[C@H](CC(C)C)NC(=O)[C@H](CC(C)C)NC(C)=O [N-acetyl-leucyl-leucyl-norleucinal] (Ac-Leu-Leu-[Nle]-aldehyde)	blunted ERCC1 up-regulation	–
Cc1cc(C)c(/C=C2\C(=O)Nc3ccccc32)[nH]1 [SU5416]	blunted ERCC1 up-regulation	–
Cc1c2oc3c(C)ccc(C(=O)N[C@@H]4C(=O)N[C@H](C(C)C)C(=O)N5CCC[C@H]5C(=O)N(C)CC(=O)N(C)[C@@H](C(C)C)C(=O)O[C@@H]4C)c3nc-2c(C(=O)N[C@@H]2C(=O)N[C@H](C(C)C)C(=O)N3CCC[C@H]3C(=O)N(C)CC(=O)N(C)[C@@H](C(C)C)C(=O)O[C@@H]2C)c(N)c1=O [actinomycin D] (I: T[dV]P[Sar][NMeV] / II: T[dV]P[Sar][NMeV]; ester I:1-I:C, II:1-II:C; linker I:N-II:N via Actinocin(9to1))	blunted ERCC1 up-regulation	–
[Cr] [chromium]	blunted ERCC1 up-regulation	–
C[C@@H]1C[C@@H]([C@H](O)CC2CC(=O)NC(=O)C2)C(=O)[C@@H](C)C1 [cycloheximide]	blunted ERCC1 up-regulation	–
CO[C@H]1[C@@H](OC)C[C@H](C)[C@@H](OC)C2=CC(=O)C=C(NC(=O)/C(C)=C/C=C\[C@H](OC)[C@@H](OC(N)=O)/C(C)=C/[C@@H]1C)C2=O [herbimycin A]	blunted ERCC1 up-regulation	–
CC(=O)N[C@@H](CSC(=O)[C@]1([C@@H](O)C(C)C)NC(=O)[C@H](C)[C@@H]1O)C(=O)O [lactacystin]	blunted ERCC1 up-regulation	–
[Pt] [platinum]	blunted ERCC1 up-regulation	–
C[C@H]1CC[C@]2(NC1)O[C@H]1C[C@H]3[C@@H]4CC[C@H]5C[C@@H](O)CC[C@]5(C)[C@H]4CC[C@]3(C)[C@H]1[C@@H]2C [tomatidine]	–	OPN promoter activity (OPN promoter): had no effect on the promoter activity; OPN promoter activity (OPN promoter; listed as Tomatidine): had no effect on the promoter activity of OPN
GLI1 shRNA-2: shRNA construct targeting GLI1 mRNA sequence TCATCAACTCGCGATGCAC, position 325 (target site or template, no part of the molecule)	–	GLI1 silencing (Gli1; shRNA cloned into pSUPERIOR): effective at silencing GLI1; also recorded: more effective GLI1 silencing; OPN expression (Gli1; shRNA-transfected cells): decreased OPN expression
OPN: recombinant human osteopontin (R & D Systems)	–	osteoclast activity (area resorbed) (RAW264.7 cells [1]): notably enhances (p<0.001) osteoclast activity; numbers of TRAP stained multinucleate cells (RAW264.7 cells [2]): significant (p<0.005) increase
interleukin 1-α: interleukin 1-α (protein, UniProt P01583 113-271, looked up) Interleukin-1 alpha: SAPFSFLSNVKYNFMRIIKYEFILNDALNQSIIRANDQYLTAAALHNLDEAVKFDMGAYKSSKDDAKITVILRISKTQLYVTAQDEDQPVLLKEMPEIPKTITGSETNLLFFWETHGTKNYFTSVAHPNLFIATKQDYWVCLAGGPPSITDFQILENQA	blunted ERCC1 up-regulation	–
